In ChEMBL document CHEMBL4765362, “Thirty Years of HDAC Inhibitors: 2020 Insight and Hindsight” (J Med Chem, 2020) one finds IC50 data, which are given here for 3 compounds.

Each structure is given as a SMILES string. pIC50: −log10 of the molar value.

Test [1] has as its target T1, Polyamine deacetylase HDAC10 (Homo sapiens, UniProt Q969S8).
T1 sequence (Q969S8 whole entry): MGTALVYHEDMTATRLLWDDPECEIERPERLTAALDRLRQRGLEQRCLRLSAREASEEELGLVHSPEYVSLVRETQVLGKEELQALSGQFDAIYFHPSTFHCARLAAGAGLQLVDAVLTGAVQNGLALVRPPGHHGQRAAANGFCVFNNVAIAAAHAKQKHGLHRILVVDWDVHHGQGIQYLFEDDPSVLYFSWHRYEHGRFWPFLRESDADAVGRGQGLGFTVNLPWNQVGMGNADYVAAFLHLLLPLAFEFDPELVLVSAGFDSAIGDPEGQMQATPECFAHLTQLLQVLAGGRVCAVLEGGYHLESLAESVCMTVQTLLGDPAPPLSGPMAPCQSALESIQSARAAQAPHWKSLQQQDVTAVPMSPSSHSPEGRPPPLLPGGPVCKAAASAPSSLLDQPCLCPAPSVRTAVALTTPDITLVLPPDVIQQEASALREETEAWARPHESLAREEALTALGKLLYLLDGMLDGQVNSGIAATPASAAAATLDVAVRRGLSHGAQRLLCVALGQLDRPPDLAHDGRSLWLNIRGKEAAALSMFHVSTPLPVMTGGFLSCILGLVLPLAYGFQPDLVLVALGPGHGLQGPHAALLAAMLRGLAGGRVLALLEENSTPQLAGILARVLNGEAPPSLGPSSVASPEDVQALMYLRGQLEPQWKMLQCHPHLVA
Put plainly: Inhibition of HDAC10 (unknown origin).

In the next test the target is T2, Histone deacetylase 11 (Homo sapiens, UniProt Q96DB2).
T2 sequence (Q96DB2 whole entry): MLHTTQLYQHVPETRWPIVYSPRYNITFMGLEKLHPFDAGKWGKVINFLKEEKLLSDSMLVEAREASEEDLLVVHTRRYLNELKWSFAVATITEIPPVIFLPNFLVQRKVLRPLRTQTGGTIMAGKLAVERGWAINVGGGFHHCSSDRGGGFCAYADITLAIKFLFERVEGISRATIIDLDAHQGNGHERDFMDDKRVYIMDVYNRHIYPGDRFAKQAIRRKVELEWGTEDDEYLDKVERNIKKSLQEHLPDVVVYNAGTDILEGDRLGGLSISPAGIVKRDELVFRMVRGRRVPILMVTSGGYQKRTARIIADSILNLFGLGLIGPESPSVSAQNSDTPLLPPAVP
The experiment in a line: Inhibition of HDAC11 (unknown origin).

In test [2] the target is Histone deacetylase 3/Nuclear receptor corepressor 2 (HDAC3/NCoR2) (Homo sapiens, UniProt O15379). Put plainly: Inhibition of His-tagged GST-fused human HDAC3/NcoR2 expressed in sf9 cells using acetyl-lysine tripeptide as substrate preincubated for 10 mins followed by substrate addition and shaken for 5 secs and measured over 30 mins.
Another test deals with Histone deacetylase 4 (Homo sapiens, UniProt P56524). Put plainly: Inhibition of human HDAC4 expressed in baculovirus infected sf9 cells using acetyl-lysine tripeptide as substrate preincubated for 10 mins followed by substrate addition and shaken for 5 secs and measured over 30 mins.
The target of the next test is Histone deacetylase 5 (Homo sapiens, UniProt Q9UQL6). Put plainly: Inhibition of human HDAC5 using acetyl-lysine tripeptide as substrate preincubated for 10 mins followed by substrate addition and shaken for 5 secs and measured over 30 mins.
Test [3] deals with T3, Protein deacetylase HDAC6 (Homo sapiens, UniProt Q9UBN7).
T3 sequence (Q9UBN7 whole entry): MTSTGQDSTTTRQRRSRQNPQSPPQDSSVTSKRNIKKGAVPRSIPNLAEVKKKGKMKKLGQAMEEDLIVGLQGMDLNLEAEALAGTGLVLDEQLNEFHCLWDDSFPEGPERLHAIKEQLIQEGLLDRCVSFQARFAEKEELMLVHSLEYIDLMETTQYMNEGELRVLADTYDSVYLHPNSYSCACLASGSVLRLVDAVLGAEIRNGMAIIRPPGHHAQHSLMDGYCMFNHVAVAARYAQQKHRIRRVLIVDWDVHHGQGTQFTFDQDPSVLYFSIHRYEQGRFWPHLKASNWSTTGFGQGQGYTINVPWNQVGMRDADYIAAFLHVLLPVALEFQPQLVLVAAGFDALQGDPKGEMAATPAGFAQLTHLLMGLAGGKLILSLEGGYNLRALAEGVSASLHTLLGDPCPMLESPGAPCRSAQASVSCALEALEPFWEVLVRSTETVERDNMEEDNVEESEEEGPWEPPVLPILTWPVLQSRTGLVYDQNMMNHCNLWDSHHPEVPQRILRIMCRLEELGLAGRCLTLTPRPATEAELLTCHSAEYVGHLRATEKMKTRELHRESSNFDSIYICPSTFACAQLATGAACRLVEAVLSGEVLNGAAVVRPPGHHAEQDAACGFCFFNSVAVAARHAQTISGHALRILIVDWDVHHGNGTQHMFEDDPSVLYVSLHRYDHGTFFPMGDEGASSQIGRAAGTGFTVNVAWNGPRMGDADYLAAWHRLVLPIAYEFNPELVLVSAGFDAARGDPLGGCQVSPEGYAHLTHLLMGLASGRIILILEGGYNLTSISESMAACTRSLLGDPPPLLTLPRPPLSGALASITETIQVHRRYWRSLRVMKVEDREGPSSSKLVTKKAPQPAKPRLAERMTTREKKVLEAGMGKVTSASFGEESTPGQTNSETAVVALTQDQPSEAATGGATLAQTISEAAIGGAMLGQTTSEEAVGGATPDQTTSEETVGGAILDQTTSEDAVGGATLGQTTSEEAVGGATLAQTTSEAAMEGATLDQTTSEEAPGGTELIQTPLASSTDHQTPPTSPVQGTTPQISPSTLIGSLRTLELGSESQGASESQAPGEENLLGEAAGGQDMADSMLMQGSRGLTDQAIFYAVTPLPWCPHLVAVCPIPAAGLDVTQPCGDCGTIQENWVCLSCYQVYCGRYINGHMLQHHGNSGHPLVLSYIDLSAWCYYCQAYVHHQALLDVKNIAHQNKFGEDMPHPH
Put plainly: Inhibition of HDAC6 (unknown origin) using acetyl-lysine tripeptide as substrate preincubated for 10 mins followed by substrate addition and shaken for 5 secs and measured over 30 mins.

In another test the target is T4, Histone deacetylase 7 (Homo sapiens, UniProt Q8WUI4).
T4 sequence (Q8WUI4 whole entry): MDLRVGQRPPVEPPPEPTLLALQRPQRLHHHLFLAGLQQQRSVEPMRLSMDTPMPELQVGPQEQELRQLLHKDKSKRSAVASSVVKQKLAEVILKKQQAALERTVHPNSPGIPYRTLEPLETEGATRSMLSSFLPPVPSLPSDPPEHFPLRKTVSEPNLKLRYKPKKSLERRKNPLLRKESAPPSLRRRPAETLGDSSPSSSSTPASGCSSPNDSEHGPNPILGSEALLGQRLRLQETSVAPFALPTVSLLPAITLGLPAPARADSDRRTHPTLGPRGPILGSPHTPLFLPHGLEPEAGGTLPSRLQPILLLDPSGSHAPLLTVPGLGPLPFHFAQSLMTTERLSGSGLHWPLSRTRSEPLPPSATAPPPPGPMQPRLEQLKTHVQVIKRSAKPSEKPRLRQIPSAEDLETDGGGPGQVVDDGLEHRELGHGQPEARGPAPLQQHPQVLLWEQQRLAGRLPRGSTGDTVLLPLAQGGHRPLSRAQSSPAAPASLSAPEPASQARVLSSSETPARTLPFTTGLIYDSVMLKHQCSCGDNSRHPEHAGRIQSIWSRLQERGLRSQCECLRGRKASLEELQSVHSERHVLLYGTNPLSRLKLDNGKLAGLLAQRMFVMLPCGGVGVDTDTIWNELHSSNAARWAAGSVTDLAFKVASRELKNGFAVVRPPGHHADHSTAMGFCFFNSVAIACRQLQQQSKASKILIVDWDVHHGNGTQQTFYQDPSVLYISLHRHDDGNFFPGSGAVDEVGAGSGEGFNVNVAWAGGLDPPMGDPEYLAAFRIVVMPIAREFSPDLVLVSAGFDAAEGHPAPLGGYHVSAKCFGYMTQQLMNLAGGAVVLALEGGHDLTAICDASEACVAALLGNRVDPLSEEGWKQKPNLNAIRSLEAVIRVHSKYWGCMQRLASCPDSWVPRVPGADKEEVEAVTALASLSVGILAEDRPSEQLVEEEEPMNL
Put plainly: Inhibition of human N-terminal GST-tagged HDAC7 (518 to end residues) expressed in baculovirus infected sf9 cells using acetyl-lysine tripeptide as substrate preincubated for 10 mins followed by substrate addition and shaken for 5 secs and measured over 30 mins.

For another test, the target named is T5, Histone deacetylase 8 (Homo sapiens, UniProt Q9BY41).
T5 sequence (Q9BY41 whole entry): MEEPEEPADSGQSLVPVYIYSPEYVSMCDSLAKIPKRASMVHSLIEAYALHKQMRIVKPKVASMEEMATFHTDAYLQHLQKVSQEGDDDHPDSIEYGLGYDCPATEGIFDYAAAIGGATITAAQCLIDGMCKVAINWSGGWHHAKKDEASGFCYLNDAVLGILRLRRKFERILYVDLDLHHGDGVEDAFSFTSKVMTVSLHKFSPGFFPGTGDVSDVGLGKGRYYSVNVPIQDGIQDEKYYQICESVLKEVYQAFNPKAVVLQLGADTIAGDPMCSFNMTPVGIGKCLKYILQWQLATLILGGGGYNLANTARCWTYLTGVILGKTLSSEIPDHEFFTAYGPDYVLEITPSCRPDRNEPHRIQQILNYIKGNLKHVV
Put plainly: Inhibition of recombinant human C-terminal His-tagged HDAC8 expressed in baculovirus infected sf9 cells using acetyl-lysine tripeptide as substrate preincubated for 10 mins followed by substrate addition and shaken for 5 secs and measured over 30 mins.

A further test deals with Histone deacetylase 9 (Homo sapiens, UniProt Q9UKV0). Put plainly: Inhibition of C-terminal His-tagged human HDAC9 (604 to 1066 residues) expressed in baculovirus infected sf9 cells using acetyl-lysine tripeptide as substrate preincubated for 10 mins followed by substrate addition and shaken for 5 secs and measured over 30 mins.
In the next test the target is Histone deacetylase 2 (Homo sapiens, UniProt Q92769). Put plainly: Inhibition of human HDAC2 expressed in Sf9 cells using acetyl-lysine tripeptide as substrate preincubated for 10 mins followed by substrate addition and shaken for 5 secs and measured over 30 mins.
Test [4] deals with T6, Polyamine deacetylase HDAC10 (Danio rerio, UniProt F1QCV2).
T6 sequence (F1QCV2 whole entry): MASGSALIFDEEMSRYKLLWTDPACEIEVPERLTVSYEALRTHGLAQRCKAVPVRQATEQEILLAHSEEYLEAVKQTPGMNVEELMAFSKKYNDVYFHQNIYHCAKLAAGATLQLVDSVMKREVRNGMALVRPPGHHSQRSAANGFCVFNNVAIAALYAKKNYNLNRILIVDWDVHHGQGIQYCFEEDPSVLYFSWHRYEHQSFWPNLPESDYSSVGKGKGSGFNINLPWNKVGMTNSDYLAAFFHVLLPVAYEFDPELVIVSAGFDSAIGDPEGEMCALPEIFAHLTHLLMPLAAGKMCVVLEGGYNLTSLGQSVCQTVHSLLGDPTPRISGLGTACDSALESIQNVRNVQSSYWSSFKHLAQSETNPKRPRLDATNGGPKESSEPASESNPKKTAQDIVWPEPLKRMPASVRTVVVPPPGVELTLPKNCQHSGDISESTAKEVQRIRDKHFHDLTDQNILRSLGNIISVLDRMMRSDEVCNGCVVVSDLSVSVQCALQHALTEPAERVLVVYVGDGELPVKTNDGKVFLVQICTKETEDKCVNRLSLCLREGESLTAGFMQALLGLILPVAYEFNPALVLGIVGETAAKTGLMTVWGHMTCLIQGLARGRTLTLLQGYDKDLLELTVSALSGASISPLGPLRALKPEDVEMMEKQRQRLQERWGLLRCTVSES
Put plainly: Inhibition of zebrafish HDAC10 (2 to 675 residues) expressed in Escherichia coli BL21(DE3) cells using N-acetylputrescine as substrate preincubated for 10 mins followed by substrate and measured after 45 to 60 mins by liquid chromatography-mass spectrometry.

Histone deacetylase 9, sequence (Q9UKV0 whole entry, the tested form may be a part): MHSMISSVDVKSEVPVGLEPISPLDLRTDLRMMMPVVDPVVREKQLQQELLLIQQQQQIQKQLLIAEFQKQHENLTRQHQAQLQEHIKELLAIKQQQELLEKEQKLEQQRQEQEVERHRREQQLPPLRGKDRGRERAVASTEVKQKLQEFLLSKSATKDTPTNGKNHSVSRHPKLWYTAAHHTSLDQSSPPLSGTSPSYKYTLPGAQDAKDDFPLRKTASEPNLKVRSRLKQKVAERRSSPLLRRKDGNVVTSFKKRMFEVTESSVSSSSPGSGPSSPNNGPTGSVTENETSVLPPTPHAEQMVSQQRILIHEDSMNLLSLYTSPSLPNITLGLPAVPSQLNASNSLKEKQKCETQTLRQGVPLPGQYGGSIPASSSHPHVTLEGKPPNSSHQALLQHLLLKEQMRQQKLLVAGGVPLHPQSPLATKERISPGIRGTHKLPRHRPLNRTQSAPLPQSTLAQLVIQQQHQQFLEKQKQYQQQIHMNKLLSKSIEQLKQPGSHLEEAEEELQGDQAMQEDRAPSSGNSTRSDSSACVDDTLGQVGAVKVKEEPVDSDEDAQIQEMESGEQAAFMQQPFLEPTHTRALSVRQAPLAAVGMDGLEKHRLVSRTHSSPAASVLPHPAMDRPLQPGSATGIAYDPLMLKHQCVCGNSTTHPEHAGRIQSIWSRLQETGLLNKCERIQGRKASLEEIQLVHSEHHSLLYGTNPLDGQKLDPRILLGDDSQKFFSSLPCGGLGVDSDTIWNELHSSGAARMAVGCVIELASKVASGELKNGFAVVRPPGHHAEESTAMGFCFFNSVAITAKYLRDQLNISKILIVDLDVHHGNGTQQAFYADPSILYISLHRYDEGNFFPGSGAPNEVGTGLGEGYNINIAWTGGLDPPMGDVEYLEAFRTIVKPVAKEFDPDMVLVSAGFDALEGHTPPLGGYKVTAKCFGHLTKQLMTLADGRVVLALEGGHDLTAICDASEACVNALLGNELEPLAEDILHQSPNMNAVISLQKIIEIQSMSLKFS
Histone deacetylase 2, sequence (Q92769 whole entry): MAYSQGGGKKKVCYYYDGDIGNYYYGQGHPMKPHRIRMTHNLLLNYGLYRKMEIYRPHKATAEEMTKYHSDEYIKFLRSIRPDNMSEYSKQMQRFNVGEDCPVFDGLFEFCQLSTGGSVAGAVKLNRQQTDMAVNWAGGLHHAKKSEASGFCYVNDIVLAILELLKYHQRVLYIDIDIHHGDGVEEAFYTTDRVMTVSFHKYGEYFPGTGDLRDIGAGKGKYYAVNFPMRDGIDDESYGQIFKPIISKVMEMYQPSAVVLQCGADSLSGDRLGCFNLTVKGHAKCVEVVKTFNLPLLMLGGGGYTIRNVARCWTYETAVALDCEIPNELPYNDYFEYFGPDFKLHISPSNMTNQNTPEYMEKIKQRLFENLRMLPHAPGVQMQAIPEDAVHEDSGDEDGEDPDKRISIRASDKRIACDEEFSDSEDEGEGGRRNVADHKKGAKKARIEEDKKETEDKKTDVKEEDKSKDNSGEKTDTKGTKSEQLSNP
Histone deacetylase 4, sequence (P56524 whole entry): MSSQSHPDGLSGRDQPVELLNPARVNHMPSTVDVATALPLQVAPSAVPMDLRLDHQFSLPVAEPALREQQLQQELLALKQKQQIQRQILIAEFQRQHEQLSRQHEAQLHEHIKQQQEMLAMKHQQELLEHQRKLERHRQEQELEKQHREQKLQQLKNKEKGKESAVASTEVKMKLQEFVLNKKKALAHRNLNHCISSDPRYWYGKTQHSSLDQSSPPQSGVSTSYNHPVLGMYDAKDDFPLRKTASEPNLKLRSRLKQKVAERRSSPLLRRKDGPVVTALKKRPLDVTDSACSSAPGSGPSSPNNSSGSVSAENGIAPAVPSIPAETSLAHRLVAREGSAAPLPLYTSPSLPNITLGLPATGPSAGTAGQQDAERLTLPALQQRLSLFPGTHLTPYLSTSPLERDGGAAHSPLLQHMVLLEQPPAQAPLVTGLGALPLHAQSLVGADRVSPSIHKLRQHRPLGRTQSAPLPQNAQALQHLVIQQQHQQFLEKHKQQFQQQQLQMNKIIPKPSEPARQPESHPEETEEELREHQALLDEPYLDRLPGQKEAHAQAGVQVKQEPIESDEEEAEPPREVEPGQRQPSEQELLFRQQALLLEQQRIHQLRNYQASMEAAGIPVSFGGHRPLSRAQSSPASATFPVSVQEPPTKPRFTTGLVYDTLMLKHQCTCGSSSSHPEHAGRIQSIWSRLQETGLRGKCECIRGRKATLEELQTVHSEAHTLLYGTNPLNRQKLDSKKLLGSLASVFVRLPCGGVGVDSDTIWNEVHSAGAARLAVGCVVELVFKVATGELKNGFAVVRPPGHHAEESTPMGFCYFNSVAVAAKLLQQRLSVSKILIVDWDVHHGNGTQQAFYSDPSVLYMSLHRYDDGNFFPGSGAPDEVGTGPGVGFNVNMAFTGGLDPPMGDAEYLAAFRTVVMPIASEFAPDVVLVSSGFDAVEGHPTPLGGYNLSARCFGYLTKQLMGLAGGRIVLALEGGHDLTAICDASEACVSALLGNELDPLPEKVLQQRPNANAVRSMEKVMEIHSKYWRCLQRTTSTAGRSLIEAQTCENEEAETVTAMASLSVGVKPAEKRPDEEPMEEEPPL
Histone deacetylase 5, sequence (Q9UQL6 whole entry): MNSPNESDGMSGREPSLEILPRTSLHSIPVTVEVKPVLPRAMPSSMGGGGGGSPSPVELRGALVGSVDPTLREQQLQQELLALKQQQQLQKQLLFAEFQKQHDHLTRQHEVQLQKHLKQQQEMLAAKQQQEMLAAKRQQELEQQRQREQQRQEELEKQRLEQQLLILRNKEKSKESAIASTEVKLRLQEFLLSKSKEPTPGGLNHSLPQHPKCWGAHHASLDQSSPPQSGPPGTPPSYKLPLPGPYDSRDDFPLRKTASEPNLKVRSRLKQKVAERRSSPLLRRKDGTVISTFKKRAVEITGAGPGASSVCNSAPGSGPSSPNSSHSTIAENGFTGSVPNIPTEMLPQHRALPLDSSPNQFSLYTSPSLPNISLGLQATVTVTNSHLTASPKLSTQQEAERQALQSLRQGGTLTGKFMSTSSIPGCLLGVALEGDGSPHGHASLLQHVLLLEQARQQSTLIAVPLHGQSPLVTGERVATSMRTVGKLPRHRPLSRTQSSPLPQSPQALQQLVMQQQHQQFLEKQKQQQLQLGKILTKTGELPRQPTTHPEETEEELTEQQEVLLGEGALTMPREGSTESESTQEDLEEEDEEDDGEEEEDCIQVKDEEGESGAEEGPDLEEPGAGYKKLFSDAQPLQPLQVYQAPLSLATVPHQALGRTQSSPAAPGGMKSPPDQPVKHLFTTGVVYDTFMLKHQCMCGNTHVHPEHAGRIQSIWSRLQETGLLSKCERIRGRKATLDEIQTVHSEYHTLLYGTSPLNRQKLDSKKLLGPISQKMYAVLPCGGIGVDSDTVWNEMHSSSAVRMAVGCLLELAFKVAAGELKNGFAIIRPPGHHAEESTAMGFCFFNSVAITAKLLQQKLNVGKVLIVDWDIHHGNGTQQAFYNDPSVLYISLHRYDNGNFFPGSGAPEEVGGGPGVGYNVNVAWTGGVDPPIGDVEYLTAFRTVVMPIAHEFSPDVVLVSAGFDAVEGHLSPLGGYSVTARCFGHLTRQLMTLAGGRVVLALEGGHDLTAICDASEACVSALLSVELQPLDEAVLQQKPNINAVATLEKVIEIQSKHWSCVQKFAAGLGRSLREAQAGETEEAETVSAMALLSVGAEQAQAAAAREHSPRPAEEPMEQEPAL

Turning to `Nc1cc(F)ccc1NC(=O)c1ccc(CNC(=O)/C=C/c2cccnc2)cc1` [TUCIDINOSTAT], the values for the negative-log IC50 (pIC50) (in test [1]; against Histone deacetylase 11) were 7.00 and 6.40, respectively.
Turning to `Nc1ccc(-c2cccs2)cc1NC(=O)c1ccc2nc(N3CCNCC3)ccc2c1`, the pIC50 in test [2] was 6.00; at Histone deacetylase 4, less than 4.70; at Histone deacetylase 5, less than 4.70; in [3], less than 4.70; against Histone deacetylase 7 it was less than 4.70; on Histone deacetylase 8, less than 4.70. In addition, the figures for the pIC50 at Histone deacetylase 9 and against Histone deacetylase 2 were less than 4.70 and 7.59, respectively.
In turn, `NCCCNCCCCCC(=O)NO` showed a negative-log IC50 (pIC50) in [4] of 6.92.

One may read the pIC50 as the negative decadic logarithm of the IC50, by convention in mol/L.
